Where “and” joins values, the source holds several entries; their conditions need not be identical. Equal entries are not always repeated. Where two headings read alike, the source gives them in different places.
Experiments:
[1] = system: S. mansoni juvenile worms (21 days); assay: Schistosomicidal activity ex vivo, juvenile worms (21 days); type: cell-based; conditions: for viability at 5 µM / viability at 15 µM / viability at 30 µM: Schistosoma mansoni, 23 day S. mansoni worms, 48 HR; for viability at 5 µM: Conc. 5 µM; for viability at 15 µM: Conc. 15 µM; for viability at 30 µM: Conc. 30 µM; for LD50 ex vivo S. mansoni 21 days: juvenile worms, 48 h exposure
Description: (§1) Three-week old, female Swiss-Webster mice obtained from the Charles River were housed in the Comparative Research Center of Rush University Medical Center. Mice were infected by percutaneous tail exposure to about 200 S. mansoni or 50 S. japonicum cercaria for adult worms and about 1000 cercaria for juvenile S. mansoni worms through natural transdermal penetration of the cercariae for 1 h[81].
(§2) DMSO formulated compounds were diluted with phenol red free M199 medium or RPMI medium for NTS or juvenile and adult worms, respectively, at <1% DMSO final concentrations. NTS, juvenile and adult worms from overnight cultures were tested against compounds in triplicate. Controls were treated with DMSO alone or 5 µM AF as a positive control in appropriate medium. […] Schistosome viabilities in the presence of the compounds were assessed using this formula: % Viability = Averages of Test / Averages of DMSO Control x 100.

PfTrxR = biological target: T1, PfTrxR (Plasmodium falciparum, UniProt Q25861); assay: P. falciparum TrxR enzyme inhibition; type: biochemical; conditions: for PfTrxR % inhibition at 50 µM: the highest concentration tested
T1 construct: 6-His (N); made in house; host or cells: E. coli BL21 (DE3)
T1 sequence (Q25861 1-541): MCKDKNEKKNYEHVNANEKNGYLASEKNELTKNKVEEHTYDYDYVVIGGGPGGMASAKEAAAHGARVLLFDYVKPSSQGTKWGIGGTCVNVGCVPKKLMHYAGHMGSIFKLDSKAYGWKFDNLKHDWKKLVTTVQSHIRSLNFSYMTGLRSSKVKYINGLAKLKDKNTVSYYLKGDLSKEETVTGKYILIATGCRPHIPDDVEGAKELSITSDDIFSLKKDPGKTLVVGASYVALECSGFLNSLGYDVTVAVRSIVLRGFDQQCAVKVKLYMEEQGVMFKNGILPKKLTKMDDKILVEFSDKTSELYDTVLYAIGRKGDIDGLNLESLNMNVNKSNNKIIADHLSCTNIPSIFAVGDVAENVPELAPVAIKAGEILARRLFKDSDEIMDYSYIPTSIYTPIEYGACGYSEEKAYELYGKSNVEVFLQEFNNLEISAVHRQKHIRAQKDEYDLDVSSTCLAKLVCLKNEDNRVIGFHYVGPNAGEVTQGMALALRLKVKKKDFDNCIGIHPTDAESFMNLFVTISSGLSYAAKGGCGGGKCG
Description: Recombinant TGR, human TrxR1, B. malayi (Bm)TrxR and human GR proteins were expressed and purified as described[20],[69],[79]. The codon optimized sequence for P. falciparum (PfTrxR, https://www.ncbi.nlm.nih.gov/protein/CAA60574.1/) with an N-terminal 6-His tag was synthesized and inserted into pET15b (GenScript) and expressed in BL21 (DE3) cells and purified as described for human GR[20]. TGR and TrxR enzyme inhibition assays were performed in triplicate at 25 °C as described[20] in 0.1 M potassium phosphate (pH 7.4), 10 mM EDTA, 100 µM NADPH and 0.01% Tween-20. TGR, human TrxR1 and BmTrxR (all at 4 nM) and PfTrxR (50 nM) were preincubated with the compounds for 15 min. The reaction was started with addition of an equal volume of DTNB (6 mM) and NADPH (100 µM) and the increase in A412 during the first 3 min was recorded. […] The reaction was preincubated for 15 min. Activity was initiated with the addition of 1 mM GSSG and 100 μM NADPH and initial rates of NADPH oxidation were monitored at 340 nm. The reactions were done in triplicate. The IC50 was calculated in GraphPad Prism.

TGR [2] = biological target: T2, TGR (Schistosoma mansoni, UniProt Q962Y6); assay: Reversibility by jump dilution; type: biochemical; conditions: for Inhibitor (rate), 0 min / % Activity, 0 min: [0, D0]: 15 min preincubation inhibitor + TGR + NADPH, diluted 1:100, then activity determined immediately; for Inhibitor (rate), 0 min / Inhibitor (rate), 60 min / Inhibitor (rate), -15: raw rate; for % Activity, 0 min / % Activity, 60 min / % Activity, -15: relative to DMSO; for Inhibitor (rate), 60 min / % Activity, 60 min: [60, D60]: 15 min preincubation inhibitor + TGR + NADPH, diluted 1:100, then activity determined after 60 min; for Inhibitor (rate), -15 / % Activity, -15: [-15]: 15 min preincubation inhibitor + TGR + NADPH, then activity determined, replicates; for % Activity (ID list) / % Inhibition (ID list): before dilution (-15)
T2 construct: made in house
T2 sequence (Q962Y6 1-598): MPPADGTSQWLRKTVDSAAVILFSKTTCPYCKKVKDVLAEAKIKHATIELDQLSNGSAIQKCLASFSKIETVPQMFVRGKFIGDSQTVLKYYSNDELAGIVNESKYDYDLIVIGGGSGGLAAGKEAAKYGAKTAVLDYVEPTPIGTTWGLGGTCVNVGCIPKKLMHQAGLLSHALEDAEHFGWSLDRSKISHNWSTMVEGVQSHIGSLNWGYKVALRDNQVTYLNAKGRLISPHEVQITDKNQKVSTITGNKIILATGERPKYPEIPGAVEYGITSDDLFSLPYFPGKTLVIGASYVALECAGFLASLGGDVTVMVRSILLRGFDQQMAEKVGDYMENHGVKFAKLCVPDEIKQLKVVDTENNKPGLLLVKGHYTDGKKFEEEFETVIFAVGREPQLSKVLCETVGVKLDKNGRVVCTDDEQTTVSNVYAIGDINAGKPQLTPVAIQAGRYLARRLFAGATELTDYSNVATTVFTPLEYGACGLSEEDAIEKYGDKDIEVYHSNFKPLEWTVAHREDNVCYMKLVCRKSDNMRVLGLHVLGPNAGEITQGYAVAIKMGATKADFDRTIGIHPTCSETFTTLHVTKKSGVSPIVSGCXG
Description: A reaction of 370 nM TGR, 100 µM NADPH, and 250 µM inhibitor was incubated for 15 min at room temperature. A 100x dilution of the reaction was made and the activity was determined immediately and after 60 min.

S. japonicum adult worms = assay: Schistosomicidal activity ex vivo, S. japonicum adult worms; type: cell-based; conditions: for LD50 ex vivo S. japonicum adult: 48 h exposure; for viability at 5 µM / viability at 15 µM / viability at 30 µM: Schistosoma japonicum, S. japonicum adult worms, 48 hr; for viability at 5 µM: Conc. 5 µM; for viability at 15 µM: Conc. 15 µM; for viability at 30 µM: Conc. 30 µM
Description: as §1, §2

TGR [3] = biological target: T2, TGR; assay: Time dependence of inhibition; type: biochemical; parameters: avg % inhib, 0.5 hr / avg % inhib, 1 hr / avg % inhib, 2 hr / avg % inhib, 3 hr / avg % inhib, 6 hr / avg % inhib, 24 hr: tested at 50 µM; conditions: panel d Time Dependence; for avg % inhib, 0.5 hr / avg % inhib, 1 hr / avg % inhib, 2 hr / avg % inhib, 3 hr / avg % inhib, 6 hr / avg % inhib, 24 hr: average; for % inhib, 0.5 hr / % inhib, 1 hr / % inhib, 2 hr / % inhib, 3 hr / % inhib, 6 hr / % inhib, 24 hr: replicates
Description: TGR was incubated at room temperature (up to 6 h) and at 4 °C for 6 to 24 h with 50 µM inhibitor and 100 µM NADPH for the indicated times. Then DTNB (3 mM) and NADPH (100 µM) were added, and the reaction was monitored at A412 for 5 min. The assay was done in triplicate.

[4] = D0: diluted 1:100, activity determined immediately, list for plotting
[5] = D60: diluted 1:100, activity determined after 60 min, list for plotting

Row | Structure (SMILES) | viability at 5 µM [1] | viability at 15 µM [1] | viability at 30 µM [1] | LD50 ex vivo S. mansoni 21 days [1] | PfTrxR % inhibition at 50 µM (PfTrxR) | % Inhibition (ID list), D60 (TGR [2]; [5]) | Inhibitor (rate), 0 min (TGR [2]) | % Activity, 0 min (TGR [2]) | Inhibitor (rate), 60 min (TGR [2]) | % Activity, 60 min (TGR [2]) | Inhibitor (rate), -15 (TGR [2]) | % Activity, -15 (TGR [2]) | % Activity (ID list) (TGR [2]; list for plotting) | % Inhibition (ID list) (TGR [2]; list for plotting) | LD50 ex vivo S. japonicum adult (S. japonicum adult worms) | viability at 5 µM (S. japonicum adult worms) | viability at 15 µM (S. japonicum adult worms) | viability at 30 µM (S. japonicum adult worms) | rate, 0.5 hr (TGR [3]) | avg % inhib, 0.5 hr (TGR [3]) | also measured
1 | Cc1oc(-c2ccc3c(c2)OCO3)nc1CN[C@@H]1C[C@@H]2C[C@H]([C@H]1C)C2(C)C [Compound 1] | 69% | 54.9% | 46.4% | 26.3 ± 0.48 µM | n.i. | -11.2% and -8.3% and -14.2% | 0.04476 and 0.04528 and 0.04727 | 96.9881% and 96.3404% and 109.043% | 0.04331 and 0.04649 and 0.04721 | 100.185% and 104.308% and 101.157% | 0.02911 and 0.02756 and 0.02942 | 84.4748% and 76.3012% and 82.9433% | 84.5% and 76.3% and 82.9% | 15.5% and 23.7% and 17.1% | 19.6 ± 1.91 µM | 87.9% | 56.2% | 19.2% | 0.0552 and 0.05671 and 0.05782 | -1.077% | inhibition at 10 µM (PfTrxR; PfTrxR, 10 µM compound, mean of 3 replicates, read-out: % inhibition): -2.06%; inhibition at 25 µM (PfTrxR; PfTrxR, 25 µM compound, mean of 3 replicates, read-out: % inhibition): -2.16%; inhibition at 50 µM (PfTrxR; PfTrxR, 50 µM compound, mean of 3 replicates, read-out: % inhibition): -1.29%; % Inhibition (ID list), D0 (TGR [2]; [4]): -3.0% and -6.3% and -11.0%; % inhib, 0.5 hr (TGR [3]): 0.01811% and -0.5318% and -2.718%; rate, 1 hr (TGR [3]): 0.04988 and 0.05076 and 0.05122; avg % inhib, 1 hr (TGR [3]): 1.283%; % inhib, 1 hr (TGR [3]): 2.919% and -0.8544% and 1.783%; rate, 2 hr (TGR [3]): 0.046 and 0.04511 and 0.04817; avg % inhib, 2 hr (TGR [3]): 0.9089%; % inhib, 2 hr (TGR [3]): -0.9879% and 3.652% and 0.06224%; rate, 3 hr (TGR [3]): 0.03818 and 0.03843 and 0.03937; avg % inhib, 3 hr (TGR [3]): 4.332%; % inhib, 3 hr (TGR [3]): 4.359% and 4.498% and 4.139%; rate, 6 hr (TGR [3]): 0.02323 and 0.02106 and 0.02443; avg % inhib, 6 hr (TGR [3]): 12.8202%; % inhib, 6 hr (TGR [3]): 11.8406% and 18.1182% and 8.502%; rate, 24 hr (TGR [3]): 0.0142 and 0.01351 and 0.01414; avg % inhib, 24 hr (TGR [3]): 28.9728%; % inhib, 24 hr (TGR [3]): 24.2263% and 31.8365% and 30.8557%
2 | CCc1ccccc1-c1nc(CN[C@@H]2C[C@@H]3C[C@H]([C@H]2C)C3(C)C)c(C)o1 [Compound 2] | 57% | 9.68% | 0.112% | 7.2 ± 0.30 µM | n.i. |  |  |  |  |  |  |  |  |  | 11.1 ± 1.35 µM | 52.5% | 30.6% | 3.64% |  |  | inhibition at 10 µM (PfTrxR): -8.06%; inhibition at 25 µM (PfTrxR): -45.1%; inhibition at 50 µM (PfTrxR): -32.7%
3 | Cc1oc(-c2ccccc2)nc1CN[C@@H]1C[C@@H]2C[C@H]([C@H]1C)C2(C)C [Compound 3] | 66% | 43.1% | 32.1% | 10.9 ± 0.39 µM |  | -12.2% and -2.4% and -4.0% | 0.04937 and 0.04787 and 0.05217 | 106.977% and 101.851% and 120.346% | 0.04847 and 0.05055 and 0.05088 | 112.121% and 113.417% and 109.021% | 0.01322 and 0.01449 | 38.3633% and 40.1163% | 38.4% and 40.1% | 61.6367% and 59.8837% and 55% | 13.9 ± 1.45 µM |  |  |  | 0.04131 and 0.04323 and 0.04147 | 24.9564% | inhibition at 50 µM (PfTrxR; read-out: PfTrxR % inhibition at 50 µM): 12%; % Activity (ID list), D0 (TGR [2]; [4]): 107.0% and 101.9% and 120.0%; % Activity (ID list), D60 (TGR [2]; [5]): 112.2%; % inhib, 0.5 hr (TGR [3]): 25.1766% and 23.3647% and 26.3279%; rate, 1 hr (TGR [3]): 0.03461 and 0.03399 and 0.03516; avg % inhib, 1 hr (TGR [3]): 32.5613%; % inhib, 1 hr (TGR [3]): 32.6392% and 32.4657% and 32.5791%; rate, 2 hr (TGR [3]): 0.02942 and 0.0272 and 0.02813; avg % inhib, 2 hr (TGR [3]): 39.6519%; % inhib, 2 hr (TGR [3]): 35.4116% and 41.9052% and 41.639%; rate, 3 hr (TGR [3]): 0.02162 and 0.0222 and 0.02273; avg % inhib, 3 hr (TGR [3]): 45.1094%; % inhib, 3 hr (TGR [3]): 45.8417% and 44.831% and 44.6555%; rate, 6 hr (TGR [3]): 0.01203 and 0.009487 and 0.01329; avg % inhib, 6 hr (TGR [3]): 55.8948%; % inhib, 6 hr (TGR [3]): 54.3454% and 63.1143% and 50.2247%; rate, 24 hr (TGR [3]): 0.008207 and 0.008188 and 0.0092; avg % inhib, 24 hr (TGR [3]): 56.6355%; % inhib, 24 hr (TGR [3]): 56.206% and 58.6882% and 55.0122%
